Test results as given in patent US8124389B2, “Crystal structure of aldehyde dehydrogenase and methods of use thereof” (The Board of Trustees of the Leland Stanford Junior …, priority 2008, dated 2012).
Numbering of substitutions follows the chain as printed.

Tests used:
Format in all cases: biochemical
ALDH2*2 [1] = target: T1, ALDH2*2 (Homo sapiens, UniProt P05091, E504K); test: Dehydrogenase activity kinetic assay (25 mM BES, pH 7.5); settings: for Hill Slope / Vmax^(app) of daidzin inhibition curve / Vmin^(app) of daidzin inhibition curve: 100 μM propionaldehyde, 10 mM NAD+
T1 construct: made in house; host or cells: E. coli
T1 sequence (P05091 18-517 E504K): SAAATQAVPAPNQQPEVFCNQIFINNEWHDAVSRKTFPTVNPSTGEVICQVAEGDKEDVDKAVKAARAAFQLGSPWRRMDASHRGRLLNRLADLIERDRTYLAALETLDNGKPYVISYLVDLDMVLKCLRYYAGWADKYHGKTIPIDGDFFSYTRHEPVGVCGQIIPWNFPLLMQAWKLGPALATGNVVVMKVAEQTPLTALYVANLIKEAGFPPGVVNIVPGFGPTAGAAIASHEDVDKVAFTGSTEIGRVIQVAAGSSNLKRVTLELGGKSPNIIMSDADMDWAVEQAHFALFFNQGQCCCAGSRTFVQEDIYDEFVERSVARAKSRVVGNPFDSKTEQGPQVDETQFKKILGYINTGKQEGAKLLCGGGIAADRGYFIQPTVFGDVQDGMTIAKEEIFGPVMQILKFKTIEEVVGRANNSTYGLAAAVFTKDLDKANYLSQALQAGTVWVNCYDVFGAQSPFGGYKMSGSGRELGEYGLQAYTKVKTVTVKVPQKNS
Protocol: (§1) (A) Wild-type ALDH2 at 0 μM or 10 μM Alda-1 and (B) ALDH2*2 at 0 μM or 50 μM Alda-1. NAD^+concentrations were 0.5 mM for wild-type ALDH2 and 10 mM for ALDH2*2. Lines show fits to 4-parameter logistic curve.
(§2) ALDH2 and ALDH2*2 were produced and purified using an E. coli expression system as previously described (Larson et al., 2005, J. Biol. Chem. 280, 30550-30556 and Larson et al., 2007, J. Biol. Chem., 282, 12940-12950). All enzyme assays were performed in 25 mM BES, pH 7.5 and included a final concentration of 2% (v/v) DMSO as a cosolvent in all cases whether or not Alda-1 was present. Enzyme concentrations in the dehydrogenase assays were between 0.03 and 0.06 μM for ALDH2 and between 0.3 and 0.5 μM for ALDH2*2. Esterase assays utilized 0.97 mM para-nitrophenylacetate (pNPA) as a standard substrate concentration and enzyme concentrations for 0.06 μM for ALDH2 and 0.7 μM for ALDH2*2. All kinetic data were analyzed with SigmaPlot (v10.0, StatSys). All activation data for the dehydrogenase and esterase reactions were fit to the expression v=Vo+{(Vmax[S])/(KAct+[S])}, where Vo is the initial velocity for the reaction in the absence of activator and KAct is the concentration of activator required for half-maximal activation. All single-vary experiments for Alda-1 activation utilized a minimum of 10 different concentrations across a range from 0-200 μM. […] All data represent the average of a minimum of three independent experiments with at least two different enzyme preparations.

wild-type ALDH2 [2] = target: T2, wild-type ALDH2 (Homo sapiens, UniProt P05091); test: as above; settings: for Hill Slope / Vmax^(app) of daidzin inhibition curve / Vmin^(app) of daidzin inhibition curve: 100 μM propionaldehyde, 0.5 mM NAD+; for Vm/Vo / Vmax^(app) / EC50: 25 mM BES, pH 7.5, 0.5 mM NAD+; for EC50: read-out: KAct^(app)
T2 construct: made in house; host or cells: E. coli
T2 sequence (P05091 18-517): T1 sequence (P05091 18-517 E504K) with K487E
Protocol: as §1, §2

[3] = target: T3, heterotetrameric ALDH2 (wild type/mutant) (Homo sapiens, UniProt P05091, E504K); test: Enzyme activation of recombinant ALDH2 proteins by Alda-1 (FIG. 2); settings: Alda-1 at 100 μM; 20 μg recombinant protein
T3 construct: made in house
T3 sequence (P05091 18-517): T1 sequence (P05091 18-517 E504K) with K487E
T3 sequence (P05091 18-517 E504K): T1 sequence (P05091 18-517 E504K)
Protocol: (§3) FIG. 2 depicts enzyme activation of homotetrameric wild type ALDH2 (homo wild type), heterotetrameric ALDH2 (hetero wild type/mutant; comprising a mixture of wild-type and mutant monomers), and homotetrameric mutant ALDH2 by Alda-1(100 μM). Enzymatic activity of recombinant ALDH2 proteins (20 μg each) is presented in percentage using homotetrameric wild type enzyme as a 100% control (n=3, **p<0.01 vs. control).
(§4) Alda-1 is an ALDH2 agonist. […] Chen et al. (2008) Science 321:1493-1495; PMID: 18787169.

[4] = target: T4, homotetrameric mutant ALDH2*2 (Homo sapiens, UniProt P05091, E504K); test: as above; settings: Alda-1 at 100 μM; 20 μg recombinant protein
T4 construct: made in house
T4 sequence (P05091 18-517 E504K): T1 sequence (P05091 18-517 E504K)
Protocol: as §3, §4

[5] = target: T5, homotetrameric wild type ALDH2*1/*1 (Homo sapiens, UniProt P05091); test: as above; settings: Alda-1 at 100 μM; 20 μg recombinant protein
T5 construct: made in house
T5 sequence (P05091 18-517): T1 sequence (P05091 18-517 E504K) with K487E
Protocol: as §3, §4

ALDH2*2 [6] = target: T1, ALDH2*2; test: Esterase activity assay (p-nitrophenylacetate hydrolysis)
Protocol: as §2
(§5) The ability of Alda-1 to stimulate the hydrolysis of p-nitrophenylacetate both in the presence and absence of coenzyme was examined.

wild-type ALDH2 [7] = target: T2, wild-type ALDH2; test: as above; settings: for Vmax / EC50 / Vo: 0.97 mM p-Nitrophenylacetate; for EC50: read-out: KAct^(app); for Vo: velocity in absence of activator
Protocol: as §2, §5

ALDH2*2 [8] = target: T1, ALDH2*2; test: Dehydrogenase activity kinetic assay (25 mM BES, pH 7.5)
[9] = fixed 50 μM Alda-1, NAD+ as varied activator, 0.97 mM p-Nitrophenylacetate

O=c1c(-c2ccc(O)cc2)coc2cc(O[C@@H]3O[C@H](CO)[C@@H](O)[C@H](O)[C@H]3O)ccc12 [Daidzin, daidzin, reference compound]
Hill Slope (ALDH2*2 [1]; 50 μM Alda-1): 1.1 +/− 0.1
Vmax^(app) of daidzin inhibition curve (ALDH2*2 [1]; 50 μM Alda-1): 23.0 ± 1.7 min⁻¹
Vmin^(app) of daidzin inhibition curve (ALDH2*2 [1]; 50 μM Alda-1): 0.2 ± 0.2 min⁻¹
Hill Slope (ALDH2*2 [1]; no Alda-1): 1.1 +/− 0.1
Vmax^(app) of daidzin inhibition curve (ALDH2*2 [1]; no Alda-1): 11.6 ± 1.3 min⁻¹
Vmin^(app) of daidzin inhibition curve (ALDH2*2 [1]; no Alda-1): 0.2 ± 0.6 min⁻¹
Hill Slope (wild-type ALDH2 [2]; 10 μM Alda-1): 1.0 +/− 0.1
Vmax^(app) of daidzin inhibition curve (wild-type ALDH2 [2]; 10 μM Alda-1): 74.9 ± 12.1 min⁻¹
Vmin^(app) of daidzin inhibition curve (wild-type ALDH2 [2]; 10 μM Alda-1): 2.5 ± 5.2 min⁻¹
Hill Slope (wild-type ALDH2 [2]; no Alda-1): 0.9 +/− 0.3
Vmax^(app) of daidzin inhibition curve (wild-type ALDH2 [2]; no Alda-1): 61.5 ± 6.1 min⁻¹
Vmin^(app) of daidzin inhibition curve (wild-type ALDH2 [2]; no Alda-1): 5.1 ± 4.7 min⁻¹

O=C(NCc1ccc2c(c1)OCO2)c1c(Cl)cccc1Cl [Alda-1, N-(1,3-benzodioxol-5-ylmethyl)-2,6-dichlorobenzamide]
increase of enzymatic activity [3]: 2.2 fold
increase of enzymatic activity [4]: 11 fold
increase of enzymatic activity [5]: 2.1 fold
effect on daidzin inhibition (ALDH2*2 [1]; 50 μM Alda-1): antagonized daidzin inhibition
effect on ALDH2 activity with phenylacetaldehyde or DACA (wild-type ALDH2 [2]): little effect
effect on daidzin inhibition (wild-type ALDH2 [2]; 10 μM Alda-1): antagonized daidzin inhibition
effect on dehydrogenase activity with aromatic aldehydes (benzaldehyde, phenylacetaldehyde, DACA) (wild-type ALDH2 [2]; 20 μM Alda-1, saturating concentrations of substrate, pH 7.5): minimal effects
Vm/Vo (wild-type ALDH2 [2]; 100 μM Acetaldehyde): 1.8 +/− 0.1
Vmax^(app) (wild-type ALDH2 [2]; 100 μM Acetaldehyde): 107 ± 12 min⁻¹
EC50 (wild-type ALDH2 [2]; 100 μM Acetaldehyde): 980 nM
Vm/Vo (wild-type ALDH2 [2]; 100 μM Butyraldehyde): 1.3 +/− 0.1
Vmax^(app) (wild-type ALDH2 [2]; 100 μM Butyraldehyde): 86.6 ± 3.1 min⁻¹
EC50 (wild-type ALDH2 [2]; 100 μM Butyraldehyde): 1800 nM
Vm/Vo (wild-type ALDH2 [2]; 100 μM Propionaldehyde): 1.7 +/− 0.1
Vmax^(app) (wild-type ALDH2 [2]; 100 μM Propionaldehyde): 78.5 ± 9.6 min⁻¹
EC50 (wild-type ALDH2 [2]; 100 μM Propionaldehyde): 5100 nM
effect on ALDH2 activity with phenylacetaldehyde or DACA at high concentrations (wild-type ALDH2 [2]; Alda-1 >100 μM): weakly inhibitory
effect on activity with benzaldehyde (wild-type ALDH2 [2]; up to maximum concentration used, 200 μM Alda-1): little effect
Vmax (ALDH2*2 [6]; 1.0 mM NAD+, 0.97 mM p-Nitrophenylacetate): 14.7 ± 1.3 min⁻¹
EC50 (ALDH2*2 [6]; 1.0 mM NAD+, 0.97 mM p-Nitrophenylacetate, read-out: KAct^(app)): 11.2 µM
Vo (ALDH2*2 [6]; 1.0 mM NAD+, 0.97 mM p-Nitrophenylacetate, velocity in absence of activator): 1.36 ± 0.28 min⁻¹
increase of ester hydrolysis (ALDH2*2 [6]; combined Alda-1 and NAD+): over 100 fold
Vmax (ALDH2*2 [6]; [9]): 49.5 ± 4.3 min⁻¹
Vo (ALDH2*2 [6]; [9]): 0.64 ± 0.19 min⁻¹
Vmax (ALDH2*2 [6]; no NAD+, 0.97 mM p-Nitrophenylacetate): 2.3 ± 0.2 min⁻¹
EC50 (ALDH2*2 [6]; no NAD+, 0.97 mM p-Nitrophenylacetate, read-out: KAct^(app)): 16.1 µM
Vo (ALDH2*2 [6]; no NAD+, 0.97 mM p-Nitrophenylacetate, velocity in absence of activator): 0.40 ± 0.03 min⁻¹
EC50 (ALDH2*2 [6]; with Alda-1, read-out: half-maximal activating concentration of NAD+ for the esterase reaction in presence of Alda-1 (lowered from 7.5 mM)): 2800 µM
Vmax (wild-type ALDH2 [7]; 0.5 mM NAD+): 248 ± 22 min⁻¹
EC50 (wild-type ALDH2 [7]; 0.5 mM NAD+): 2600 nM
Vo (wild-type ALDH2 [7]; 0.5 mM NAD+): 96.3 ± 2.2 min⁻¹
Vmax (second line, paired with Ki^(app)) (wild-type ALDH2 [7]; 0.5 mM NAD+, higher Alda-1 concentrations, antagonism with NAD+): 242 ± 14 min⁻¹
Ki (wild-type ALDH2 [7]; 0.5 mM NAD+, higher Alda-1 concentrations, antagonism with NAD+, read-out: Ki^(app)): 328 µM
increase of ester hydrolysis (wild-type ALDH2 [7]; combined Alda-1 and NAD+): 10 fold
Vmax (wild-type ALDH2 [7]; no NAD+): 181 ± 6.8 min⁻¹
EC50 (wild-type ALDH2 [7]; no NAD+): 3400 nM
Vo (wild-type ALDH2 [7]; no NAD+): 24.9 ± 2.0 min⁻¹
EC50 (ALDH2*2 [8]; covariation NAD+ (0.5-10 mM) and Alda-1 (0 to 30 μM), non-essential activator fit, read-out: Kact): 16 ± 3 µM
decrease of apparent Km for NAD+ (ALDH2*2 [8]; covariation NAD+ and Alda-1): 6.7 fold
increase of Vmax (ALDH2*2 [8]; covariation NAD+ and Alda-1): 2 fold
β-factor (modifier on Vmax) (ALDH2*2 [8]; covariation NAD+ and Alda-1, non-essential activator fit): 2.0±0.2
